In ChEMBL document CHEMBL1131986, “Structure-activity relationships of biphenyl tetrazoles as metallo-beta-lactamase inhibitors” (Bioorg Med Chem Lett, 1999):

Key:
[1] = target: Metallo-beta-lactamase type 2 (Bacteroides fragilis, UniProt P25910); experiment: Inhibition of metallo-beta-lactamase (MBL) from Bacteroides fragilis.
Beta-lactamase = Beta-lactamase (Pseudomonas aeruginosa, UniProt Q79MP6); experiment: Inhibition of metallo-beta-lactamase (MBL) from Pseudomonas aeruginosa mediated by the plasmid-borne IMP-1 enzyme.
Sequence of Beta-lactamase (Q79MP6 whole entry): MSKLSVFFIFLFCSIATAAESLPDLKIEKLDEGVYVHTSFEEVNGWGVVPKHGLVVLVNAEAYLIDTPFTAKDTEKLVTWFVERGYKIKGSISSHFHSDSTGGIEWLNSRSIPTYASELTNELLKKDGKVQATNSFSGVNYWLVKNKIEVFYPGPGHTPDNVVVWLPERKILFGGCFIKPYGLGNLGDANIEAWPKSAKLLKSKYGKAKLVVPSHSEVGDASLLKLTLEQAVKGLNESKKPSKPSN

Dipeptidase 1 = target: T1, Dipeptidase 1 (Sus scrofa, UniProt P22412); experiment: In vitro apparent inhibition constant of porcine renal Dehydropeptidase-1.; details: read-out: Ki app
T1 sequence (P22412 whole entry): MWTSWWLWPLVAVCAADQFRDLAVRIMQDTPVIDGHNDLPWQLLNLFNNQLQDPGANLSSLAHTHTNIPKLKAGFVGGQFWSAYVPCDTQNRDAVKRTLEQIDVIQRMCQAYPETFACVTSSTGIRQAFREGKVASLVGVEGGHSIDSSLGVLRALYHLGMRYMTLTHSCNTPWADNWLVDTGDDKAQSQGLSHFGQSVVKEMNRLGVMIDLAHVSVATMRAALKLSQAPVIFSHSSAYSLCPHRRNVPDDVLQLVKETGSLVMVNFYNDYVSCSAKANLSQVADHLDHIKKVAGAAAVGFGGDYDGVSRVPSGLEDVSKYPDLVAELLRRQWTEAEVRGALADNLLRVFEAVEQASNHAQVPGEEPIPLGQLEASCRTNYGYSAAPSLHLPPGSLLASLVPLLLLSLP

Sequence of Metallo-beta-lactamase type 2 (P25910 whole entry): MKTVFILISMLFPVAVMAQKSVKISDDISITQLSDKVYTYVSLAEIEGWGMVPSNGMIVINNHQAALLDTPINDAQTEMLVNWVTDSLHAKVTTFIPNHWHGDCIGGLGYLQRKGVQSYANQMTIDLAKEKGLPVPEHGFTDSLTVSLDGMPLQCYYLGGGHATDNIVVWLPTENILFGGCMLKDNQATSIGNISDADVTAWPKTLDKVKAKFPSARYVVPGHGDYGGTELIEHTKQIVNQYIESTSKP

Structure (SMILES)	IC50 [1]	IC50 (Beta-lactamase)	Ki (Dipeptidase 1)
CCCCc1nn(-c2ccccc2Cl)c(C(=O)OCC)c1Cc1ccc(-c2ccccc2-c2nnn[nH]2)cc1	170 µM	200 µM	250 µM
CCCCc1nn(-c2ccccc2-c2ccccc2)c(C(=O)O)c1Cc1ccc(-c2ccccc2-c2nnn[nH]2)cc1	180 µM	65 µM	420 µM
CCCCc1nn(-c2c(Cl)cccc2Cl)c(C(=O)O)c1Cc1ccc(-c2ccccc2-c2nnn[nH]2)cc1	100 µM	> 200 µM	500 µM
CCCCc1nn(-c2cccc(Cl)c2Cl)c(C(=O)O)c1Cc1ccc(-c2ccccc2-c2nnn[nH]2)cc1	37 µM	> 200 µM	310 µM
CCCCc1nn(-c2cccc(Cl)c2)c(C(=O)O)c1Cc1ccc(-c2ccccc2-c2nn[nH]n2)cc1	190 µM	> 200 µM	425 µM
CCCCc1nn(-c2ccccc2C(F)(F)F)c(C(=O)O)c1Cc1ccc(-c2ccccc2-c2nnn[nH]2)cc1	40 µM	> 200 µM	380 µM
CCCCc1nn(-c2ccccc2)c(C(=O)OCC)c1Cc1ccc(-c2ccccc2-c2nnn[nH]2)cc1	100 µM	> 200 µM	250 µM
CCCCc1nn(-c2ccccc2-c2ccccc2)c(C(=O)OCC)c1Cc1ccc(-c2ccccc2-c2nn[nH]n2)cc1	> 200 µM	150 µM	
CCCCc1nn(-c2ccc(Cl)cc2)c(C(=O)O)c1Cc1ccc(-c2ccccc2-c2nn[nH]n2)cc1	230 µM	> 200 µM	430 µM
CCCCc1nn(-c2ccccc2C(F)(F)F)c(C(=O)OCC)c1Cc1ccc(-c2ccccc2-c2nnn[nH]2)cc1	22 µM	> 200 µM	
CCCCc1nn(-c2ccccc2[N+](=O)[O-])c(C(=O)O)c1Cc1ccc(-c2ccccc2-c2nnn[nH]2)cc1	120 µM	> 200 µM	640 µM
CCCCc1nn(-c2ccccc2C)c(C(=O)O)c1Cc1ccc(-c2ccccc2-c2nn[nH]n2)cc1	80 µM	> 200 µM	470 µM
CCCCc1nn(-c2ccccc2)c(C(=O)O)c1Cc1ccc(-c2ccccc2-c2nn[nH]n2)cc1	200 µM	> 200 µM	590 µM
CCCCc1nn(-c2ccccc2[N+](=O)[O-])c(C(=O)OCC)c1Cc1ccc(-c2ccccc2-c2nnn[nH]2)cc1	18 µM	> 200 µM	
CCCCc1nn(-c2cc(Cl)ccc2Cl)c(C(=O)O)c1Cc1ccc(-c2ccccc2-c2nnn[nH]2)cc1	50 µM	> 200 µM	380 µM
CCCCc1nn(-c2ccccc2Cl)c(C(=O)O)c1Cc1ccc(-c2ccccc2-c2nn[nH]n2)cc1	30 µM	> 200 µM	350 µM

The remaining lines, values ahead:

IC50 [1]	IC50 (Beta-lactamase)	Ki (Dipeptidase 1)	Structure (SMILES)
80 µM	> 200 µM	450 µM	CCCCc1nn(-c2c(Cl)cc(Cl)cc2Cl)c(C(=O)OCC)c1Cc1ccc(-c2ccccc2-c2nn[nH]n2)cc1
170 µM	76 µM	450 µM	CCCCc1nn(-c2cccc(Cl)c2)c(C(=O)OCC)c1Cc1ccc(-c2ccccc2-c2nn[nH]n2)cc1
100 µM	66 µM	480 µM	CCCCc1nn(-c2ccc(Cl)cc2Cl)c(C(=O)OCC)c1Cc1ccc(-c2ccccc2-c2nnn[nH]2)cc1
290 µM	70 µM	380 µM	CCCCc1nn(-c2ccc(Cl)cc2)c(C(=O)OCC)c1Cc1ccc(-c2ccccc2-c2nn[nH]n2)cc1
100 µM	60 µM	80 µM	CCCCc1nn(-c2cc(Cl)ccc2Cl)c(C(=O)OCC)c1Cc1ccc(-c2ccccc2-c2nn[nH]n2)cc1
33 µM	> 200 µM	800 µM	CCCCc1nn(-c2c(Cl)cc(Cl)cc2Cl)c(C(=O)O)c1Cc1ccc(-c2ccccc2-c2nnn[nH]2)cc1
100 µM	175 µM	170 µM	CCCCc1nn(-c2cccc(Cl)c2Cl)c(C(=O)OCC)c1Cc1ccc(-c2ccccc2-c2nnn[nH]2)cc1
70 µM	> 200 µM		CCCCc1nn(-c2ccccc2C)c(C(=O)OCC)c1Cc1ccc(-c2ccccc2-c2nn[nH]n2)cc1
80 µM	> 200 µM	400 µM	CCCCc1nn(-c2ccc(Cl)cc2Cl)c(C(=O)O)c1Cc1ccc(-c2ccccc2-c2nn[nH]n2)cc1
